pIC50: −log10 of the molar value.
What was measured:
PKCepsilon = target: T1, PKCepsilon (Homo sapiens, UniProt Q02156); assay: Kinase panel 33P-ATP filter assay, PKCepsilon; format: biochemical; conditions: HCl salt tested; ATP Conc. 10 μM (Km); read-out: Compound IC50 (nM) PKCepsilon
T1 sequence (Q02156 1-737): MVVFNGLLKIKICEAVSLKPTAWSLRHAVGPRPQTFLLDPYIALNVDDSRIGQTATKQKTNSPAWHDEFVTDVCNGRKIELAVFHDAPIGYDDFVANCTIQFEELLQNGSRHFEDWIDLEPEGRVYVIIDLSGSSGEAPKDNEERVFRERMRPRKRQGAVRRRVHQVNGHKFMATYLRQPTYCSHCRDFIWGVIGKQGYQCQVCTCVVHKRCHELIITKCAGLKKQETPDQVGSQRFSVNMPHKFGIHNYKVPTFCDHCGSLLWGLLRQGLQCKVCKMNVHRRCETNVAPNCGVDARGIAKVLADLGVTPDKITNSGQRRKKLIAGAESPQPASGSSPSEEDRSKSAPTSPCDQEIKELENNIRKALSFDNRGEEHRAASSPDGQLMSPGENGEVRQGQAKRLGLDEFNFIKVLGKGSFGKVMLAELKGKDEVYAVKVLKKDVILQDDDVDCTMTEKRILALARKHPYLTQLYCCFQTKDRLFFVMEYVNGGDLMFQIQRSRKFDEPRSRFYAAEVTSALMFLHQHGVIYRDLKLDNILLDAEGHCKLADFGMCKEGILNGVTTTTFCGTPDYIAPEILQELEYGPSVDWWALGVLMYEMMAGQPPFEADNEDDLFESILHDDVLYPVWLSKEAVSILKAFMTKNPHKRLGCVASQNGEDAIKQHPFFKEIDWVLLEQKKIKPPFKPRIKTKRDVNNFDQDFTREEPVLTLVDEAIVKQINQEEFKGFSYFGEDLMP
Description: (§1) The HCl salts of S enantiomer and the R enantiomer of compound A were tested against a panel of kinases.
(§2) Compounds were received as powder and resuspended to 10 mM DMSO stock. Compounds were tested in 10-dose IC50 mode with a 3-fold serial dilution starting at 10 μM. Control compound, staurosporine, was tested in 10-dose IC50 mode with 4-fold serial dilution starting at 20 μM.
(§3) Reaction Conditions: Buffer Conditions: 20 mM HEPES ((4-(2-hydroxyethyl)-1-piperazineethanesulfonic acid; pH 7.5), 10 mM MgCl2, 1 mM EGTA (Ethyleneglycol-bis(p-aminoethyl)-N,N,N′,N′-tetraacetic Acid), 0.01% Brij35, 0.02 mg/ml BSA (Bovine serum albumin), 0.1 mM Na3VO4, 2 mM DTT (Dithiothreitol), 1% DMSO. Reaction Procedure: 1. Prepare indicated substrate in freshly prepared reaction buffer. 2. Deliver required cofactors to the substrate solution above. 3. Deliver indicated kinase into the substrate solution and mix gently. 4. Deliver compounds in DMSO into the kinase reaction mixture utilizing acoustic technology (Echo550). 5. Deliver ^33P-ATP (specific activity 0.01 μCi/μl final) into the reaction mixture to initiate the reaction. 6. Incubate kinase reaction for 120 minutes at room temperature. 7. […] Data Analysis: Kinase activity data were expressed as the percent remaining kinase activity in test samples compared to vehicle (dimethyl sulfoxide) reactions. […]

PKN1/PRK1 = PKN1/PRK1 (Homo sapiens, UniProt Q16512); assay: Kinase panel 33P-ATP filter assay, PKN1/PRK1; format: biochemical; conditions: HCl salt tested; ATP Conc. 15 μM (Km); read-out: Compound IC50 (nM) PKN1/PRK1
PKN1/PRK1, sequence (Q16512 whole entry): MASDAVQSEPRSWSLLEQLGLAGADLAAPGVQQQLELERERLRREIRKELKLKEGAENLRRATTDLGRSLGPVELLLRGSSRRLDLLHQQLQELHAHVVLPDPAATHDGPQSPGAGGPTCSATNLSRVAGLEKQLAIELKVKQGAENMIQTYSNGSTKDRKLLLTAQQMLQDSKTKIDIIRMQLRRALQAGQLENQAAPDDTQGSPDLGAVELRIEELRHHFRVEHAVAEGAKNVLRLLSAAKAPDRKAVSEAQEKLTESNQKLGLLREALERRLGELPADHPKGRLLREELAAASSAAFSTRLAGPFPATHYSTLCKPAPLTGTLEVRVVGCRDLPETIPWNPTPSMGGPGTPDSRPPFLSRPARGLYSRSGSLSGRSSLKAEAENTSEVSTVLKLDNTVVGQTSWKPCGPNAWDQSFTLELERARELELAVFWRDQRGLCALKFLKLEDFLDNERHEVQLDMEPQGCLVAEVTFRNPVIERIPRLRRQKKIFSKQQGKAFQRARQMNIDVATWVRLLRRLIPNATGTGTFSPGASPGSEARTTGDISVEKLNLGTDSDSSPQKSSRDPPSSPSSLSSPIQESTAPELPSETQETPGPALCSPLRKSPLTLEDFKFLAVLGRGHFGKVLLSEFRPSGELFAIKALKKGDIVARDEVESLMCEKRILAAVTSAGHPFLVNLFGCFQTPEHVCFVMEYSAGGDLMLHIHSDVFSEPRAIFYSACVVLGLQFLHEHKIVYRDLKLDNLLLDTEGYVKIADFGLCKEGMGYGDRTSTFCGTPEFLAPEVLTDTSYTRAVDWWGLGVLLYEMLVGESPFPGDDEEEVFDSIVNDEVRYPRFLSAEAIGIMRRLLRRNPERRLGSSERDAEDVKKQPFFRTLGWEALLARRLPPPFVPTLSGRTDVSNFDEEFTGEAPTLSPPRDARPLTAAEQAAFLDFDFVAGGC
Description: as §1, §2, §3

CB2 (h) = target: T2, CB2 (h) (Homo sapiens, UniProt P34972); assay: CEREP panel CB2 (h) antagonist effect, cAMP HTRF; format: cell-based; conditions: HCl salt tested; CHO cells, WIN 55212-2 (3 nM)
T2 construct: expressed in transfected cells; host or cells: CHO cells
T2 sequence (P34972 whole entry): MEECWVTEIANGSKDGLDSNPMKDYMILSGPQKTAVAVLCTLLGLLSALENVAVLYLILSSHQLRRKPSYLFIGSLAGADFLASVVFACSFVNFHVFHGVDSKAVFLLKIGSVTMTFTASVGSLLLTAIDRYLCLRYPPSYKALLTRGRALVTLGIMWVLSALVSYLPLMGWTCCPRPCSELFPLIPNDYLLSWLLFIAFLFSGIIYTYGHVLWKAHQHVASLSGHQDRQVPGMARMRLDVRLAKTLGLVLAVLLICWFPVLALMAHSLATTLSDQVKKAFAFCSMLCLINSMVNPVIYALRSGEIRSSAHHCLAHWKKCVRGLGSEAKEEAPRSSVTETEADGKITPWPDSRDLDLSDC
From the text: The use of in vitro pharmacological screening against a diverse range of targets (receptors, ion channels, enzymes and transporters) is used to identify undesirable off-target activity that may cause adverse drug reactions in humans. Screening panels (e.g. SafetyScreen44™ Panel, Eurofins) comprise a selection of off-targets linked with known issues in humans that could hinder or halt the development of drug candidates or market withdrawal if discovered after a drug is approved. The HCl salts of the S enantiomer and the R enantiomer of compound A were tested against a panel of such targets.
The tests were carried out according to the methods described in the following tables and indicated literature references.

ROCK1 = ROCK1 (Homo sapiens, UniProt Q13464); assay: Activity against kinase ROCK1; format: biochemical; conditions: comparison of enantiomers
ROCK1, sequence (Q13464 whole entry, species assumed): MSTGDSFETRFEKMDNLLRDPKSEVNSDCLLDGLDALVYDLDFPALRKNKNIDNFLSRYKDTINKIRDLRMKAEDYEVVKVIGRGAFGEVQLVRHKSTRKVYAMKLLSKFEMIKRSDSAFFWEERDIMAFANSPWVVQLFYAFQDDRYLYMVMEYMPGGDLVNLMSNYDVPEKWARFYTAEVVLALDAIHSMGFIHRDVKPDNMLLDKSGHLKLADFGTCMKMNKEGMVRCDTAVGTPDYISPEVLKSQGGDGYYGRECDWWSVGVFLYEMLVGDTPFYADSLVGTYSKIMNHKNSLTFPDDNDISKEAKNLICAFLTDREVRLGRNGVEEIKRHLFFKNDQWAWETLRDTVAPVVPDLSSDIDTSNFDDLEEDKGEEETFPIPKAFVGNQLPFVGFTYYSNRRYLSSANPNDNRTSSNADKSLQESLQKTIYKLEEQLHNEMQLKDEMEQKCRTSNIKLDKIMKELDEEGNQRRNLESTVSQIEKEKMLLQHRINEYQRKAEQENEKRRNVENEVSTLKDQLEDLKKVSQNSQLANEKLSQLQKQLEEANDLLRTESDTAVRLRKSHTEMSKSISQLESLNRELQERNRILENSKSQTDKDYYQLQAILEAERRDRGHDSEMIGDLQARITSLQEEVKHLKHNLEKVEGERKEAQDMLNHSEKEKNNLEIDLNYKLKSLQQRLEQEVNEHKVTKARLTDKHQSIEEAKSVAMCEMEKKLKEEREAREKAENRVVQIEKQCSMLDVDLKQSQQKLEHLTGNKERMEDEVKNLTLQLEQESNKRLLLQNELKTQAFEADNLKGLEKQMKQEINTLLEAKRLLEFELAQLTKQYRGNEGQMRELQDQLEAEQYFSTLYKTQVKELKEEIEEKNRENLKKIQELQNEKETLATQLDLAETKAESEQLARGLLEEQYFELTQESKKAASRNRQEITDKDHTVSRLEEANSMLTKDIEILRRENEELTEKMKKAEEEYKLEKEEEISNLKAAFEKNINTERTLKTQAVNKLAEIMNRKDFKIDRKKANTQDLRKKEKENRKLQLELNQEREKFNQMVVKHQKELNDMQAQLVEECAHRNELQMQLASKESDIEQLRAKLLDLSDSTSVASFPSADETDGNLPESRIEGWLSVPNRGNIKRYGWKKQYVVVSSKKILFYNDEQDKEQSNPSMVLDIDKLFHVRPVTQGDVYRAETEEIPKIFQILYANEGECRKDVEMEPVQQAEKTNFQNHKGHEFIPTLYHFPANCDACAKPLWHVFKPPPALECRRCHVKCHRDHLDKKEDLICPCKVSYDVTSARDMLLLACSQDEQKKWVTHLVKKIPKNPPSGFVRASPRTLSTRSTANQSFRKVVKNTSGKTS

Row | IC50 (PKCepsilon) | IC50 (PKN1/PRK1) | CB2 (h) (antagonist effect) (IC50) (CB2 (h)) | Difference between activities of S- and R-enantiomer against ROCK1 (ROCK1) | pIC50 (CB2 (h)) | SMILES
1 | 6.7 nM | 8.5 nM | Inactive | no statistically meaningful difference |  | NCc1ccc(C(=O)Nc2ccncc2F)cc1-c1cccc(C(=O)Nc2ccc(SC[C@H]3CCOC3=O)cc2)c1 [S-enantiomer]
2 | 2.9 nM | 7.9 nM |  | no statistically meaningful difference | 4.42 | NCc1ccc(C(=O)Nc2ccncc2F)cc1-c1cccc(C(=O)Nc2ccc(SC[C@@H]3CCOC3=O)cc2)c1 [R-enantiomer]

— US20260078108A1, “SOLID FORMS OF A ROCK INHIBITOR” (REDX PHARMA PLC, priority 2022, published 2026)
